Measurements from paper PMC11156913, “New sulfonamide-based glycosides incorporated 1,2,3-triazole as cytotoxic agents through VEGFR-2 and carbonic anhydrase inhibitory activity” (Scientific Reports, 2024).
Where “and” joins values, the source holds several entries; their conditions need not be identical. Equal values may be shown once.

Columns and labels:
hCA IX = molecular target: T1, hCA IX (Homo sapiens, UniProt Q16790); experiment: Carbonic anhydrase inhibition, stopped-flow CO2 hydration, hCA IX; format: biochemical; details: read-out: IC50 (mean ± SD) Carbonic anhydrase isoforms hCA IX
T1 construct: made in house
Description: (§1) There was further information in the supplemental file.
(§2) An applied photophysics stopped-flow instrument was used for assaying the CA-catalyzed CO2 hydration activity. […] The CO2 concentrations ranged from 1.7 to 17 mM for the determination of the kinetic parameters and inhibition constants. For each inhibitor, at least six traces of the initial 5–10% of the reaction were used for determining the initial rate. The uncatalyzed rates were determined in the same manner and subtracted from the total observed rates. Stock solutions of inhibitor (0.1 mM) were prepared in distilled-deionized water, and dilutions up to 0.01 nM were done thereafter with distilled-deionized water. Inhibitor and enzyme solutions were preincubated together for 15 min at room temperature before assay in order to allow for the formation of the E-I complex. The inhibition constants were obtained by nonlinear least-squares methods using PRISM 3, and the Cheng –Prusoff equation, and represent the mean from at least three different determinations. All CA isoforms were recombinant ones obtained in-house.

[1] = tested on: breast MCF-7 cancer cell line; experiment: In vitro cytotoxic activity (MTT assay), MCF-7; format: cell-based, human; details: for inhibition at 100 µM / IC50: Homo sapiens, MCF7; for inhibition at 100 µM: 48 h, read-out: % inhibition ± SD MCF-7; for IC50: MCF-7 cells, MTT, read-out: IC50 (mean ± SD) MCF-7
Text: (§3) The supplemental file contained extra details.

[2] = tested on: lung A-549 cancer cell line; experiment: In vitro cytotoxic activity (MTT assay), A-549; details: for inhibition at 100 µM / IC50: Homo sapiens; for inhibition at 100 µM: A549, 48 h, read-out: % inhibition ± SD A-549; for IC50: A549, read-out: IC50 (mean ± SD) A-549
Description: Exponentially, cells were placed in 10^4 cells/ well for 24 h, and then add fresh medium which containing different concentration of the tested sample. Serial two-fold dilution of the tested sample were added using a multichannel pipette. […] Rinse the wells using water until no stain. After that, add 30% glacial acetic acid to all wells with shaking plates on Microplate reader (TECAN, Inc.) to measure the absorbance, using a test wavelength of 490 nm. Besides, compare the treated samples with the control cell.

VEGFR-2 = VEGFR-2 (Homo sapiens, UniProt P35968); experiment: In vitro inhibitory assessment against VEGFR-2 (ELISA, MCF-7 cell homogenates); format: cell-based; details: read-out: IC50 (mean ± SD) VEGFR-2
VEGFR-2, sequence (P35968 20-1356): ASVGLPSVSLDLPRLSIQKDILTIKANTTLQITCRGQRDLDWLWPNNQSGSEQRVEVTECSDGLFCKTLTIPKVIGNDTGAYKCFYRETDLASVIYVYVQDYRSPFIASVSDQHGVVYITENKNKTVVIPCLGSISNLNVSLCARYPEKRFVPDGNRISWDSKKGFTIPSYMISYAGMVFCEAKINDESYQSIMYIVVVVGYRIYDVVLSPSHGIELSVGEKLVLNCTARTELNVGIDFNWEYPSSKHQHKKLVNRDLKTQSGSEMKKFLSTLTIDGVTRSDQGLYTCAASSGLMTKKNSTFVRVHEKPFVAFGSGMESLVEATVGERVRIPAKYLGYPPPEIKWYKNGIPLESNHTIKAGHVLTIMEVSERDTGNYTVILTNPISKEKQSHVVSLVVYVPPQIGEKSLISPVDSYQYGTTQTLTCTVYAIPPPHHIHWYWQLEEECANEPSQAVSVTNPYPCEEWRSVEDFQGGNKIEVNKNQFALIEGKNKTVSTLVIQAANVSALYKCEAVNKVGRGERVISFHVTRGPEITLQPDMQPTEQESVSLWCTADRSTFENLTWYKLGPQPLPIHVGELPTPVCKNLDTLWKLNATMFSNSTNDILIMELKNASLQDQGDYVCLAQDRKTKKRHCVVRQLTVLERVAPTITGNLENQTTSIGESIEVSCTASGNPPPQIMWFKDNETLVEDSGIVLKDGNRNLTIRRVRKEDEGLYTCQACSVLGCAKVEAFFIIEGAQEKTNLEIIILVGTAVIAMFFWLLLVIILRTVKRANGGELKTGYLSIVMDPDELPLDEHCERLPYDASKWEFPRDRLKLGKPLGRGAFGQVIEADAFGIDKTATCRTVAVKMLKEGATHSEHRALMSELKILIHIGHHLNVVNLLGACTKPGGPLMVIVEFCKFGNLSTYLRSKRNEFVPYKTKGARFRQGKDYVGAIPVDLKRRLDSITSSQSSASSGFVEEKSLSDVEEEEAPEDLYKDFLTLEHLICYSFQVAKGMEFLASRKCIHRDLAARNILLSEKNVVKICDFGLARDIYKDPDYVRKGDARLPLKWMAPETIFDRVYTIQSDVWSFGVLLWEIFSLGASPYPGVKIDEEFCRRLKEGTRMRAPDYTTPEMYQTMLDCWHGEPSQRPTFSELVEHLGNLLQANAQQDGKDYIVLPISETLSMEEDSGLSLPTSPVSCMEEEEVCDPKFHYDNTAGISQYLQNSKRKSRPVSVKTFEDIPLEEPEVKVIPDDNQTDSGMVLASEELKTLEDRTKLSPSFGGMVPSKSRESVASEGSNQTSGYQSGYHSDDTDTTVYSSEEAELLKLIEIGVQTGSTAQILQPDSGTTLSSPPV
Description: as §1
The cells were harvested and the homogenates were prepared in saline using a tight pestle homogenizer until complete cell disruption. The kit uses a double-antibody sandwich enzyme-linked immunosorbent assay (ELISA) to determine the level of human VEGFR-2 in samples. A monoclonal antibody for VEGFR-2 was pre-coated onto 96-well plates. The test samples are added to the wells and a biotinylated detection polyclonal antibody from goat specific for VEGFR-2 was added subsequently followed by washing with PBS buffer. Avidin-Biotin-Peroxidase complex was added and the unbound conjugates were washed away with PBS buffer. HRP substrate TMB was used to visualize HRP enzymatic reaction. TMB was catalyzed by HRP to produce a blue color product that changed into yellow after adding acidic stop solution. The density of yellow color is proportional to the human VEGFR-2 amount of the sample captured in the plate. The chroma of color and the concentration of the human VEGFR-2 of the samples were positively correlated and the optical density was determined at 450 nm. The level of human VEGFR-2 in samples was calculated (pg/ml) as duplicate determinations from the standard curve. Percent inhibition was calculated in comparison to control untreated cells.

hCA XII = molecular target: T2, hCA XII (Homo sapiens, UniProt O43570); experiment: Carbonic anhydrase inhibition, stopped-flow CO2 hydration, hCA XII; format: biochemical; details: read-out: IC50 (mean ± SD) Carbonic anhydrase isoforms hCA XII
T2 construct: made in house
T2 sequence (O43570 25-354): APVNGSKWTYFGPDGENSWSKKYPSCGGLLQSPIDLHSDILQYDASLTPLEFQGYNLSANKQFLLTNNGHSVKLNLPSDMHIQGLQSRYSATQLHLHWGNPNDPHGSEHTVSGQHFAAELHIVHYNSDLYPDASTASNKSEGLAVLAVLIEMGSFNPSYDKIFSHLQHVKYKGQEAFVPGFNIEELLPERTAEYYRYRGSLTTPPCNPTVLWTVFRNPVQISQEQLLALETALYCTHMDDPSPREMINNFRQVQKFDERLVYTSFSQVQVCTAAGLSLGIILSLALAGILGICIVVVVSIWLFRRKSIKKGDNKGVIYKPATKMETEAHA
Description: as §1, §2

[3] = tested on: liver HepG-2 cancer cell line; experiment: In vitro cytotoxic activity (MTT assay), HepG-2; details: for IC50: Homo sapiens, HepG2, read-out: IC50 (mean ± SD) HepG-2
Text: as §3

[4] = tested on: colorectal HCT-116 cancer cell line; experiment: In vitro cytotoxic activity (MTT assay), HCT-116; format: cell-based, human; details: for inhibition at 100 µM / IC50: Homo sapiens; for inhibition at 100 µM: HCT-116, 48 h, read-out: % inhibition ± SD HCT-116; for IC50: HCT-116 cells, MTT, read-out: IC50 (mean ± SD) HCT-116
Text: as §3

[5] = tested on: retinal pigment epithelial normal RPE-1 cell line; experiment: Cytotoxic activity (MTT assay) against normal cell line RPE-1; format: cell-based; details: Homo sapiens, normal RPE-1 cells, read-out: IC50 (mean ± SD) RPE-1
Text: Furthermore, the MTT assay was utilized to estimate the cytotoxic activity of the extremely potent derivatives 4, 7 and 9 against the normal cell line RPE-1, with the aim of examining their safety profiles (Table 1). […] They could therefore be thought of as safe cytotoxic agents.
as §3

Bcl-2 = Bcl-2 level in MCF-7 cells; format: cell-based, human; details: 24 h, 21.15 μM
Text: (§4) Additionally, compound 9 boosted the p53 protein level by 7.4 times in MCF-7 treated cells compared to 125.40 Pg/mL in control cells (Table 3).
(§5) Bax, Bcl-2 and p53 levels in MCF-7 cells were clarified utilising the previously reported approach for the promising benzenesulfonamide-1,2,3-triazole-glycosides 9.
(§6) The levels of the apoptotic marker Bax and anti-apoptotic marker Bcl-2 were estimated using BIO RAD iScript TM One-Step RT-PCR kit with SYBR® Green. The procedure of the used kit was done according to the manufacturer’s instructions.

p53 = p53 level in MCF-7 cells (ELISA); format: cell-based, human; details: 24 h, 21.15 μM
Description: as §4, §5
Human p53 present in MCF-7 cells was determined; using Human p53 ELISA-Kit (CS0070 Sigma) read using spectrophotometer at 450 nm against untreated control cells (negative control) applying the standard protocols of the manufacturers. The samples or standard having human p53 bind to antibodies adsorbed to the microwells. Addition of biotin-conjugated was followed by incubation and addition of dispense of unbound biotin-conjugated streptavidin HRP. Then, the reaction was terminated by adding acid, and the absorbance was measured at 450 nm.

Bax = Bax level in MCF-7 cells; format: cell-based, human; details: 24 h, 21.15 μM
Text: as §4, §5, §6

MCF-7 cells [6] = experiment: Cell cycle analysis by flow cytometry (PI); format: cell-based, human; details: 21.15 μM, 24 h, 48 h (Table S6 title)
Description: (§7) The cells were further examined through flow cytometry with annexin-V staining (Figs. 5–7).
(§8) The examination of cell cycle analysis and apoptosis was explained[66] with the use of flow cytometry. Benzenesulfonamide-1,2,3-triazole-glycosides 9 was applied to MCF-7 cells for a duration of 24 h, and the cells were then incubated at 37 °C. Further details were included in the supplemental file.
(§9) Cell cycle analysis and apoptosis study were carried out using flow cytometry. MCF-7 cells were seeded at 8×10^4 and incubated at 37°C in 5% CO2 overnight. After treatment with the tested compound 10 for 24 h, cell pellets were collected and centrifuged (300 g, 5 min). For cell cycle analysis cell pellets were fixed with 70% ethanol on ice for 15 min and collected again. The pellets were incubated with propidium iodide (PI) staining solution at room temperature for 1 h and analyzed by a Gallios flow cytometer (Beckman Coulter, Brea, CA, USA). Apoptosis detection was carried out by FITC AnnexinV/PI commercial kit (Becton Dickenson, Franklin Lakes, NJ, USA) following the manufacturer protocol. The samples were analyzed by fluorescence-activated cell sorting (FACS) with a Gallios flow cytometer (Beckman Coulter, Brea, CA, USA) within 1 h after staining. Data were analyzed using Kaluza v 1.2 (Beckman Coulter).

MCF-7 cells [7] = experiment: Apoptosis detection, Annexin V-FITC/PI flow cytometry; format: cell-based, human; details: 21.15 μM, 24 h
Description: as §7, §8, §9

In the case of `[N-]=[N+]=Nc1ccc(S(=O)(=O)NC2CCCCC2)cc1` [Compound 4, 4-Azido-N-cyclohexylbenzenesulfonamide], the IC50 (hCA IX) is reported as 142 nM, the “percentage cytotoxicity on MCF-7” value ([1]; 12.5 µM) is reported as 35.03±2.83% and the “percentage cytotoxicity on MCF-7” value ([1]; 25 µM) is reported as 58.31±3.30%. The “percentage cytotoxicity on MCF-7” value ([1]; 50 µM) was 78.50±0.37%, the “percentage cytotoxicity on MCF-7” value ([1]; 100 µM) was 91.20±0.09% and the inhibition at 100 µM ([1]; 100 µM) was 91.2 ± 0.09%. The IC50 [1] was 19.6 ± 1.1 µM, the “percentage cytotoxicity on A-549” value ([2]; 12.5 µM) was 21.37±1.55% and the “percentage cytotoxicity on A-549” value ([2]; 25 µM) was 34.87±0.75%. For the same molecule, the “percentage cytotoxicity on A-549” value ([2]; 50 µM) was 70.87±1.63%, the “percentage cytotoxicity on A-549” value ([2]; 100 µM) was 97.43±0.67% and the inhibition at 100 µM [2] was 97.43 ± 0.67%. The IC50 [2] was 30.9 ± 0.65 µM, the IC50 (VEGFR-2) was 181 ± 0.66 µM and the IC50 (hCA XII) was 35.9 nM. The “percentage cytotoxicity on HepG-2” value ([3]; 12.5 µM) was 85.13±1.65%, the “percentage cytotoxicity on HepG-2” value ([3]; 25 µM) was 86.23±0.98% and the “percentage cytotoxicity on HepG-2” value ([3]; 50 µM) was 85.67±2.50%. The “percentage cytotoxicity on HepG-2” value ([3]; 100 µM) was 87.30±0.91%, the IC50 [3] was 12.5 ± 0.51 µM and the “percentage cytotoxicity on HCT-116” value ([4]; 12.5 µM) was 34.64±0.48%. The “percentage cytotoxicity on HCT-116” value ([4]; 25 µM) was 51.93±0.58%, the “percentage cytotoxicity on HCT-116” value ([4]; 50 µM) was 86.90±0.28% and the “percentage cytotoxicity on HCT-116” value ([4]; 100 µM) was 94.83±0.87%. It also gave an inhibition at 100 µM ([4]; 100 µM) of 94.83 ± 0.87%, an IC50 [4] of 20.3 ± 0.33 µM and an IC50 [5] of 78.3 ± 1.56 µM. The melting point was 65 to 67 °C.

For `CC(=O)O[C@@H]1[C@@H](OC(C)=O)[C@H](OCc2cn(-c3ccc(S(=O)(=O)NC4CCCCC4)cc3)nn2)OC[C@H]1OC(C)=O` [Compound 9, N-cyclohexyl-4-(4-([2,3,4-tri-O-acetyl-β-D-xylopyranosyl]oxymethyl)-1H-1,2,3-triazol-1-yl)benzenesulfonamide], the IC50 (hCA IX) was 40 nM, the Bcl-2 (Bcl-2) was 3.27 ng/mL and 3.27 ± 0.18 ng/mL and the “Bcl-2 protein downregulated versus control” value (Bcl-2) was 2.6 times. For the same molecule, the P53 (p53) was 930.69 ± 0.55 pg/mL, the “p53 protein level boosted versus control” value (p53) was 7.4 times and the “percentage cytotoxicity on MCF-7” value ([1]; 12.5 µM) was 32.60±6.13%. The “percentage cytotoxicity on MCF-7” value ([1]; 25 µM) was 52.27±0.43%, the “percentage cytotoxicity on MCF-7” value ([1]; 50 µM) was 83.30±1.87% and the “percentage cytotoxicity on MCF-7” value ([1]; 100 µM) was 92.73±1.04%. The inhibition at 100 µM ([1]; 100 µM) was 92.7 ± 1.04%, the IC50 [1] was 21.2 ± 2.45 µM and the “percentage cytotoxicity on A-549” value ([2]; 12.5 µM) was 43.13±0.73%. The “percentage cytotoxicity on A-549” value ([2]; 25 µM) was 47.60±0.32%, the “percentage cytotoxicity on A-549” value ([2]; 50 µM) was 75.53±1.16% and the “percentage cytotoxicity on A-549” value ([2]; 100 µM) was 90.00±0.95%. It also gave an inhibition at 100 µM [2] of 90 ± 0.95%, an IC50 [2] of 19.8 ± 0.65 µM and an IC50 (VEGFR-2) of 0.38 ± 0.14 µM. For the same molecule, the IC50 (hCA XII) was 3.2 nM, the Bax (Bax) was 271.45 pg/mL and 271.45 ± 0.25 pg/mL and the Bax/Bcl-2 (Bax) was 83.01. The “increase in Bax levels compared to untreated control cells” value (Bax) was 6.2 fold, the “percentage cytotoxicity on HepG-2” value ([3]; 12.5 µM) was 58.20±1.50% and the “percentage cytotoxicity on HepG-2” value ([3]; 25 µM) was 63.70±2.29%. The “percentage cytotoxicity on HepG-2” value ([3]; 50 µM) was 82.59±0.87%, the “percentage cytotoxicity on HepG-2” value ([3]; 100 µM) was 82.60±1.73% and the IC50 [3] was 8.39 ± 0.2 µM. The “%G0-G1” value (MCF-7 cells [6]) was 52.69%, the “%G2/M” value (MCF-7 cells [6]) was 29.98% and the “%S” value (MCF-7 cells [6]) was 17.33%. The “percentage cytotoxicity on HCT-116” value ([4]; 12.5 µM) was 34.51±0.44%, the “percentage cytotoxicity on HCT-116” value ([4]; 25 µM) was 53.50±0.93% and the “percentage cytotoxicity on HCT-116” value ([4]; 50 µM) was 67.00±0.12%. For the same molecule, the “percentage cytotoxicity on HCT-116” value ([4]; 100 µM) was 75.70±0.48%, the inhibition at 100 µM ([4]; 100 µM) was 75.7 ± 0.48% and the IC50 [4] was 23.6 ± 0.22 µM. For the same molecule, the “Apoptosis Early” value (MCF-7 cells [7]) was 15.77%, the “Apoptosis Late” value (MCF-7 cells [7]) was 9.75% and the “Apoptosis Total” value (MCF-7 cells [7]) was 29.51. It also gave a Necrosis (MCF-7 cells [7]) of 3.99% and an IC50 [5] of 87.22 ± 0.73 µM.
